Data: ChEMBL document CHEMBL5346863, “Discovery of substituted benzyloxy-benzylamine inhibitors of acetyltransferase Eis and their anti-mycobacterial activity” (Eur J Med Chem, 2022)
In brackets after ≈: the same amount, converted by molar mass. Activity calls are given as the source filed them. No cut-off for these calls is given here.

Assays:
N-acetyltransferase Eis = biological target: T1, N-acetyltransferase Eis (Mycobacterium tuberculosis (strain ATCC 25618 / H37Rv), UniProt P9WFK7); assay: Inhibition of wild-type Mycobacterium tuberculosis Eis expressed in Escherichia coli BL21(DE3) cells incubated for 5 mins by Ellman's method
T1 sequence (P9WFK7 whole entry): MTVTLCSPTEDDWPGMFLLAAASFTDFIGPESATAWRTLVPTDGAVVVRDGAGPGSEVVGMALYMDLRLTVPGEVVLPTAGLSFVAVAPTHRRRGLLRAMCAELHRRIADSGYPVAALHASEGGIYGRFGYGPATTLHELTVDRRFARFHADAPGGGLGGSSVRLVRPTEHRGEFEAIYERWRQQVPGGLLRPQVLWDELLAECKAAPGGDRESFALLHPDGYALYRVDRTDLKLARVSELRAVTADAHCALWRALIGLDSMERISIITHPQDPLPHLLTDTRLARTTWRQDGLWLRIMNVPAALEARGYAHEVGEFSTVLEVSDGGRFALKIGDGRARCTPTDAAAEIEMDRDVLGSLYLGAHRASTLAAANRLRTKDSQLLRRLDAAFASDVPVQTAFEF

[1] = tested on: Mycobacterium tuberculosis; assay: Antibacterial activity against Mycobacterium tuberculosis H37Ra assessed as bacterial growth inhibition incubated 2 to 3 weeks by resazurin dye based assay; type: functional; details: time 2-3 weeks
[2] = tested on: Mycobacterium tuberculosis; assay: Antibacterial activity against Mycobacterium tuberculosis H37Rv assessed as MIC of kanamycin A at 100 uM incubated for 24 hrs followed by kanamycin A addition measured after 6 days by alamarblue dye based assay; type: functional; details: for Activity: time 7.0 day; for MIC: 168 h, time 7 day
[3] = tested on: Mycobacterium tuberculosis; assay: Antibacterial activity against Mycobacterium tuberculosis mc2 6230 assessed as bacterial growth inhibition incubated 2 to 3 weeks by resazurin dye based assay; type: functional; details: time 2-3 weeks
[4] = tested on: Mycolicibacterium smegmatis; assay: Antibacterial activity against Mycobacterium smegmatis mc2 122 assessed as bacterial growth inhibition incubated for 2 to 3 weeks by resazurin dye based assay; type: functional; details: time 2-3 weeks
[5] = tested on: Mycobacteroides abscessus; assay: Antibacterial activity against Mycobacterium abscessus ATCC 19977 assessed as bacterial growth inhibition incubated for 2 to 3 weeks by resazurin dye based assay; type: functional; details: time 2-3 weeks
Mycobacterium avium = assay: Antibacterial activity against Mycobacterium avium ATCC 25291 assessed as bacterial growth inhibition incubated for 2 to 3 weeks by resazurin dye based assay; type: functional; details: time 2-3 weeks
[6] = tested on: Mycobacterium intracellulare; assay: Antibacterial activity against Mycobacterium intracellulare ATCC 13950 assessed as bacterial growth inhibition incubated for 2 to 3 weeks by resazurin dye based assay; type: functional; details: time 2-3 weeks
[7] = tested on: Mycobacterium parascrofulaceum; assay: Antibacterial activity against Mycobacterium parascrofulaceum ATCC BAA-614 assessed as bacterial growth inhibition incubated for 2 to 3 weeks by resazurin dye based assay; type: functional; details: time 2-3 weeks
A549 = assay: Cytotoxicity against human A549 cells upto 12.5 uM incubated for 24 hrs by resazurin dye based cell viability assay; type: toxicity; details: a549, 24 h
HEK293 = assay: Cytotoxicity against HEK293 cells upto 12.5 uM incubated for 24 hrs by resazurin dye based cell viability assay; type: toxicity; details: human, hek293, 24 h
J774.1 = assay: Cytotoxicity against mouse J774.1 cells upto 12.5 uM incubated for 24 hrs by resazurin dye based cell viability assay; type: toxicity; details: j774.1, 24 h
[8] = tested on: Mycobacterium tuberculosis; assay: Antibacterial activity against Mycobacterium tuberculosis H37Rv assessed as MIC of kanamycin A at 95.9 uM incubated for 24 hrs followed by kanamycin A addition measured after 6 days by alamarblue dye based assay; type: functional, organism-based; details: time 7.0 day
[9] = tested on: Mycobacterium tuberculosis; assay: Antibacterial activity against Mycobacterium tuberculosis K204 assessed as MIC of kanamycin A at 95.9 uM incubated for 24 hrs followed by kanamycin A addition measured after 6 days by alamarblue dye based assay; type: functional, organism-based; details: time 7.0 day
[10] = tested on: Mycobacterium tuberculosis; assay: Antibacterial activity against Mycobacterium tuberculosis H37Rv assessed as MIC of kanamycin A at 54.8 uM incubated for 24 hrs followed by kanamycin A addition measured after 6 days by alamarblue dye based assay; type: functional, organism-based; details: time 7.0 day
[11] = tested on: Mycobacterium tuberculosis; assay: Antibacterial activity against Mycobacterium tuberculosis K204 assessed as MIC of kanamycin A at 54.8 uM incubated for 24 hrs followed by kanamycin A addition measured after 6 days by alamarblue dye based assay; type: functional, organism-based; details: time 7.0 day

| Structure (SMILES) | IC50 (N-acetyltransferase Eis) [µM] | MIC [1] [µM] | Activity [2] | MIC [3] [µM] | MIC [4] [µM] | MIC [5] [µM] | MIC (Mycobacterium avium) [µM] | MIC [6] [µM] | MIC [7] [µM] | Activity (A549) | Activity (HEK293) | Activity (J774.1) | MIC [2] [µg/mL] | Activity [8] | Activity [9] | Activity [10] | Activity [11] |
| --- | --- | --- | --- | --- | --- | --- | --- | --- | --- | --- | --- | --- | --- | --- | --- | --- | --- |
| Fc1ccc(COc2ccccc2CNCc2ccccc2)cc1 | ~8 | 31.3 (≈ 10.1 µg/mL) | Active | 50 (≈ 16.1 µg/mL) | > 62.5 | 31.3 (≈ 10.1 µg/mL) | > 62.5 | 31.3 (≈ 10.1 µg/mL) | 31.3 (≈ 10.1 µg/mL) | Non-Toxic | Non-Toxic | Non-Toxic | – | – | – | – | – |
| NCC[C@H](O)C(=O)N[C@@H]1C[C@H](N)[C@@H](O[C@H]2O[C@H](CN)[C@@H](O)[C@H](O)[C@H]2O)[C@H](O)[C@H]1O[C@H]1O[C@H](CO)[C@@H](O)[C@H](N)[C@H]1O [AMIKACIN] | – | – | – | – | ≤ 0.25 | 1 (≈ 0.586 µg/mL) | 3.9 (≈ 2.28 µg/mL) | ≤ 0.25 | 0.25 (≈ 0.146 µg/mL) | – | – | – | – | – | – | – | – |
| Cc1ccc(COc2ccc(CNCc3ccccc3)cc2)cc1 | > 200 | 15.6 (≈ 4.95 µg/mL) | – | 1.56 (≈ 0.495 µg/mL) | 1 (≈ 0.317 µg/mL) | 31.3 (≈ 9.94 µg/mL) | 15.6 (≈ 4.95 µg/mL) | 15.6 (≈ 4.95 µg/mL) | 15.6 (≈ 4.95 µg/mL) | – | – | – | – | – | – | – | – |
| c1ccc(COc2ccccc2CNCc2ccncc2)cc1 | ~40 | 125 (≈ 38 µg/mL) | – | > 100 | > 62.5 | > 62.5 | > 62.5 | > 62.5 | 62.5 (≈ 19 µg/mL) | – | – | – | 2.5 | – | – | – | – |
| Fc1ccc(COc2ccc(CNCc3ccccc3)cc2)cc1 | > 200 | > 250 | – | > 100 | > 62.5 | > 62.5 | > 62.5 | > 62.5 | > 62.5 | – | – | – | – | – | – | – | – |
| Brc1ccc(COc2ccc(CNCc3ccccc3)cc2)cc1 | 1.5 | 7.8 (≈ 2.98 µg/mL) | – | 12.5 (≈ 4.78 µg/mL) | 7.8 (≈ 2.98 µg/mL) | 15.6 (≈ 5.96 µg/mL) | 62.5 (≈ 23.9 µg/mL) | 15.6 (≈ 5.96 µg/mL) | 7.8 (≈ 2.98 µg/mL) | – | – | – | – | – | – | – | – |
| COc1ccc(COc2ccc(CNCc3ccccc3)cc2)cc1 | 12 | 3.9 (≈ 1.3 µg/mL) | – | 12.5 (≈ 4.17 µg/mL) | 62.5 (≈ 20.8 µg/mL) | 31.3 (≈ 10.4 µg/mL) | 31.3 (≈ 10.4 µg/mL) | – | – | – | – | – | – | – | – | – | – |
| Fc1ccc(COc2cccc(CNCc3ccncc3)c2)cc1 | 14 | 31.3 (≈ 10.1 µg/mL) | Active | 100 (≈ 32.2 µg/mL) | > 62.5 | > 62.5 | > 62.5 | > 62.5 | > 62.5 | – | – | – | – | – | – | – | – |
| Fc1ccc(COc2cccc(CNCc3ccccc3)c2)cc1 | 7.3 | 3.9 (≈ 1.25 µg/mL) | – | 50 (≈ 16.1 µg/mL) | – | 31.3 (≈ 10.1 µg/mL) | 15.6 (≈ 5.01 µg/mL) | – | – | – | – | – | – | – | – | – | – |
| Fc1ccc(COc2cccc(CNCc3cccnc3)c2)cc1 | 6.4 | 62.5 (≈ 20.1 µg/mL) | – | 100 (≈ 32.2 µg/mL) | > 62.5 | > 62.5 | > 62.5 | > 62.5 | > 62.5 | – | – | – | ≤ 1.25 | – | – | – | – |
| Brc1ccc(COc2ccccc2CNCc2cccnc2)cc1 | ~8 | – | Active | 100 (≈ 38.3 µg/mL) | – | > 62.5 | > 62.5 | > 62.5 | > 62.5 | Non-Toxic | Non-Toxic | Non-Toxic | – | Active | Active | – | – |
| Clc1ccc(COc2cccc(CNCc3ccncc3)c2)cc1 | ~20 | 31.3 (≈ 10.6 µg/mL) | Active | 50 (≈ 16.9 µg/mL) | – | > 62.5 | > 62.5 | 31.3 (≈ 10.6 µg/mL) | – | – | – | – | – | – | – | Active | Active |
| c1ccc(COc2ccc(CNCc3cccnc3)cc2)cc1 | ~40 | 31.3 (≈ 9.53 µg/mL) | – | 100 (≈ 30.4 µg/mL) | > 62.5 | > 62.5 | 31.3 (≈ 9.53 µg/mL) | 31.3 (≈ 9.53 µg/mL) | – | – | – | – | – | – | – | – | – |
| CC(C)c1ccc(COc2ccc(CNCc3ccccc3)cc2)cc1 | 1.4 | ≤ 0.5 | – | 0.78 (≈ 0.269 µg/mL) | 3.9 (≈ 1.35 µg/mL) | 7.8 (≈ 2.69 µg/mL) | 15.6 (≈ 5.39 µg/mL) | 2 (≈ 0.691 µg/mL) | – | – | – | – | – | – | – | – | – |
